The record followed here is PubChem BioAssay (NCI).

Assay in all cases: NCI-60 cell line screen, 48 h
Assay [1] deals with A549 NSCLC.
The test system of assay [2] is HCT-116 colon.
Assay [3] deals with HCT-15 colon.
Assay [4] relates to HL-60(TB) leukemia.
Assay [5] relates to MDA-MB-435.
Assay [6] relates to NCI-H460 lung.
In assay [7] the test system is NCI/ADR-RES ovarian.
Assay [8] deals with OVCAR-3 ovarian.
For assay [9], the system named is OVCAR-4 ovarian.
The test system of assay [10] is SNB-75 CNS.

Molecules are shown by their SMILES.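 Interpolation was linear, between the two tested concentrations surrounding the appropriate level; five concentrations were tested over 48 hours in 96-well plates. The concentration for 50% growth inhibition is given as GI50. TGI is the concentration that stops growth completely.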 Bounds are passed on as bounds.

As for `COc1ccc(C2=NNC(c3ccc(-c4ccc(OC)cc4[N+](=O)[O-])o3)C2)cc1` (stereo not given), the GI50 in assay [1] is 39.5 µM; in assay [2], 22.8 µM; in assay [3] it was 31 µM; in assay [4] it was 71.7 µM; in [5] it was 25.3 µM; in assay [6], 46.8 µM. In addition, the GI50 in assay [7] is 17.9 µM; in assay [8], 21 µM; in assay [9], more than 100 µM; in assay [10], 21.2 µM. The TGI was more than 100 µM in assay [1]; more than 100 µM in [2]; more than 100 µM in assay [3]; more than 100 µM in assay [4]; 91.3 µM in assay [5]; more than 100 µM in assay [6]. The TGI in assay [7] was 59.9 µM; in [8], 62.2 µM; in assay [9], more than 100 µM; in assay [10], 84.3 µM.
As to `O=C(CNC(=O)c1cccc2ccccc12)Nc1ccccc1Oc1cccc(O)c1`, the GI50 in assay [1] is 9.64 µM; in [2], 1.36 µM; in assay [3], 3.14 µM; in assay [4] it was 1.31 µM; in assay [5] it was 0.755 µM; in assay [6] it was 5.82 µM. Also, the GI50 in assay [7] was 7.94 µM; in assay [8] it was 1.5 µM; in assay [9], more than 25 µM; in assay [10], 3.3 µM. Moreover, the TGI was more than 25 µM in [1]; more than 25 µM in assay [2]; more than 25 µM in [3]; 10.6 µM in assay [4]; 3.07 µM in assay [5]; more than 25 µM in [6]. For the same compound, the TGI in assay [7], in [8], in assay [9] and in assay [10] was more than 25 µM each time.
Turning to `COc1nccc(-c2c(-c3ccc(F)cc3)ncn2C2CCC(O)CC2)n1` (stereo not given), the GI50 in assay [1] was 32.4 µM; in [2], 79.3 µM; in assay [3], 36.6 µM; in [4], 56.7 µM; in assay [5], 54.3 µM; in assay [6] it was 29.9 µM. The GI50 in assay [7] is more than 100 µM; in assay [8], more than 82 µM; in assay [9], more than 65.3 µM; in assay [10], more than 100 µM. The TGI in assay [1], in assay [2], in assay [3], in assay [4], in assay [5] and in assay [6] was more than 100 µM in each case. For the same compound, the TGI in [7], in assay [8], in [9] and in assay [10] was more than 100 µM in each case.
Turning to `CC(=O)OCC(=O)[C@@]1(O)[C@H](C)C[C@H]2[C@@H]3C=C(C)C4=Cc5c(cnn5-c5ccc(F)cc5)C[C@]4(C)[C@H]3[C@@H](O)C[C@@]21C`, the GI50 is 1.45 µM in assay [1]; 1.66 µM in assay [2]; 1.45 µM in [3]; 4.1 µM in [4]; 2.35 µM in assay [5]; 1.47 µM in assay [6]. The GI50 was 1.9 µM in assay [7], 1.78 µM in assay [8], 2.12 µM in assay [9] and 1.19 µM in assay [10]. In addition, the TGI in assay [1] stood at 9.96 µM; in [2], 3.5 µM; in assay [3] it was 3.63 µM; in assay [4] it was 9.02 µM; in assay [5] it was 7.02 µM; in assay [6], 3.16 µM. Also, the TGI in assay [7] is 6.82 µM; in [8], 3.84 µM; in assay [9] it was 11.5 µM; in assay [10] it was 4.14 µM.
Take `CCOC(=O)C1CCC/C1=N\N=C(N)N` (stereo not given) (tested in a mixture with another compound): the TGI in assay [1], in [2], in assay [3], in assay [4], in [5] and in [6] was more than 100 µM in each case. The TGI in [7], in assay [8], in assay [9] and in assay [10] was more than 100 µM each time.
Turning to `Cc1cccc2c3c(sc12)C(c1ccc(Cl)cc1)C(C#N)=C(/N=C/c1ccc(Cl)cc1)O3` (stereo not given), the GI50 in [1] is 0.489 µM; in [2], 0.402 µM; in [3], 0.392 µM; in assay [4] it was 0.325 µM; in assay [5], 0.172 µM; in [6], 0.425 µM. Further, the GI50 in [7] was 0.307 µM; in [8], 0.393 µM; in [9], 2.17 µM; in assay [10], 0.186 µM. Besides, the TGI in assay [1] is more than 100 µM; in [2] it was more than 100 µM; in [3], more than 100 µM; in assay [4], 2.54 µM; in assay [5], 0.407 µM; in [6] it was more than 100 µM. Moreover, the TGI in [7] was 4.27 µM; in assay [8] it was 6.81 µM; in assay [9] it was more than 100 µM; in assay [10] it was 0.748 µM.
As to `O=C(Nc1ccccc1Cl)c1cnc2ccc(C3CCNCC3)cn12`, the GI50 was 11.5 µM in assay [1]; 13.4 µM in assay [2]; 11 µM in [3]; more than 67.9 µM in assay [4]; 32.6 µM in assay [5]; more than 87.3 µM in assay [6]. Besides, the GI50 was 39.2 µM in assay [7], 5.6 µM in [8], more than 75.1 µM in assay [9] and 0.15 µM in assay [10]. Further, the TGI in [1], in assay [2], in [3], in assay [4], in [5] and in assay [6] was more than 100 µM each time. Moreover, the TGI in assay [7] was more than 100 µM; in [8], more than 100 µM; in assay [9] it was more than 100 µM; in [10], 5.02 µM.
Take `Clc1nc(Cl)c2ncn(C/C=C\Cn3cnc4c(Cl)nc(Cl)nc43)c2n1`: the GI50 was 3.67 µM in assay [1]; 1.48 µM in assay [2]; 1.64 µM in assay [3]; 3.64 µM in [4]; 1.88 µM in [5]; 3.24 µM in [6]. Besides, the GI50 in [7] was 2.46 µM; in [8], 1.37 µM; in assay [9] it was 1.79 µM; in assay [10], 2.73 µM. The TGI was 39.4 µM in [1]; 3.26 µM in [2]; 3.36 µM in assay [3]; more than 100 µM in assay [4]; 3.77 µM in assay [5]; 11.2 µM in [6]. Besides, the TGI in assay [7] is 8.01 µM; in assay [8] it was 2.69 µM; in assay [9] it was 3.26 µM; in [10], 7.91 µM.
